The text below walks through data of patent US20110201623A1, “Crystalline Form Of A Cyclopropyl Benzamide Derivative” (priority 2010, published 2011).

For one test, the target named is hH3 receptors (Homo sapiens, UniProt Q9Y5N1). Kind of test: [35S]GTPγS binding assay, antagonist mode (RαMH EC80). Format: biochemical. The note with it: RαMH at EC80 (30 nmol/L for hH3), membranes, SPA; read-out: IC50 equivalent of pIC50, inhibition of H3 agonist R-α-Methyl-Histamine stimulated [35S]GTPγS binding (converted). Here is the method:
Guanosine 5′-O-(3-[^35S]thio)triphosphate [GTPgS] Binding Assay
[^35S]GTPγS binding assay was performed in a buffer consisting of 20 mmol/L Hepes, 100 mmol/L NaCl, 10 mmol/L MgCl2, 3 μg/mL saponine and 10 μmol/L GDP. The pH was set at 7.4 at room temperature. Liquid handling robots were used to prepare, in drug plates, 10 points dose response curves of the compound of formula (I) (3-fold serial dilutions, starting at 1 μmol/L for hH3 receptors and 10 μmol/L for rH3 receptors). The assay, performed in 96-well plates, consisted of 120 μL, containing 20 μL of RαMH (EC80, antagonist mode), 20 μL the compound of formula (I) at varying concentrations, 20 μL of the tracer [^35S]GTPγS (60000 dpm/well, 0.2 nmol/L) and finally 60 μL of membranes (10 μg of protein/well for hH3) mix is added to start the reaction. Membranes, SPA beads (125 μg/well) and GDP were mixed together and incubated for 30 minutes at room temperature prior to the start of the assay. Eight wells were used to define baseline and RαMH EC80 (30 nmol/L for hH3 receptors) define the positive control. Plates were then mixed (2 minutes) on an orbital mixer, incubated 60 minutes at room temperature, and then read on a Trilux 384™ counter.
For orientation: GTPγS resists hydrolysis and so accumulates on activated G proteins.

Test [1] deals with human H3 receptor (445 aa) (Homo sapiens, UniProt Q9Y5N1). Kind of test: Human histamine H3 binding assay with the agonist radioligand [3H]-N-α-methylhistamine. The note with it: membranes, SPA, 1.5 nmol/L radioligand, pH 7.4, room temperature; read-out: IC50 equivalent of pIC50, inhibition of specific binding of [3H]-N-α-Methyl Histamine to the human H3 receptor (converted). As for the experimental part:
Human Histamine H3 Binding Assay with the Agonist Radioligand [^3H]-N-a-Methylhistamine
The H3 binding assay was used to evaluate the ability of a compound of formula (I) to inhibit [^3H]-N-a-methylhistamine under the conditions as described below: All binding assays were performed in a buffer consisting of 20 mmol/L Hepes, 100 mmol/L NaCl. The pH was set at 7.4 at room temperature. Liquid handling robots were used to prepare, in drug plates, 10 points dose response curves of the compound of formula (I) (3-fold serial dilutions, starting at 10 μmol/L). The assay, performed in 96-well plates, consisted of 100 μL, containing 20 μL of buffer alone for total binding (column #1), 20 μL of imetit (5×) for the non specific binding (column #2), 20 μL of the compound of formula (I) (5×) at varying concentrations (column #3 to #12), plus 20 μL of [3H]-N-a-Methylhistamine (25 000 dpm/well, 1.5 nmol/L) in all wells and finally 60 μL of membranes (20 μg of protein/well) mix is added to start the reaction. Membranes and SPA beads (1000 μg/well) were mixed together and incubated for 30 minutes at room is temperature prior to the start of the assay. […] Plates were then mixed on an orbital mixer, incubated 90 minutes at room temperature, and then read on a Trilux 384™ counter.

human H3 receptor (445 aa), sequence (Q9Y5N1 whole entry): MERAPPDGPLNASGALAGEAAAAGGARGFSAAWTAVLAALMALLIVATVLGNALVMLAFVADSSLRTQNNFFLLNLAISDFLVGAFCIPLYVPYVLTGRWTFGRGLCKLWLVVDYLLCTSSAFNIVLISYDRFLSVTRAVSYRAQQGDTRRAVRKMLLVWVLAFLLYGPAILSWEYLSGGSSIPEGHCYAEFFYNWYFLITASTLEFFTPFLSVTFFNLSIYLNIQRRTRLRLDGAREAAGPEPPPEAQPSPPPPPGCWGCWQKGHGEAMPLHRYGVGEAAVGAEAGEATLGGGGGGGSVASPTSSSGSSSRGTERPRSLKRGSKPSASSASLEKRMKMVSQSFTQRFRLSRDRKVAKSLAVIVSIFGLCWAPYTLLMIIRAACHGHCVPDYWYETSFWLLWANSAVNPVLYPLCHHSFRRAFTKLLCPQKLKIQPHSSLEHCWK
hH3 receptors, sequence (Q9Y5N1 whole entry): as above

As a reminder, the IC50 is the midpoint of a concentration-inhibition curve. Regarding `NC(=O)c1ccc([C@H]2C[C@@H]2C(=O)N2CCN(C3CCC3)CC2)cc1` [Compound (I), 4-{(1S,2S)-2-[(4-cyclobutylpiperazin-1-yl)carbonyl]-cyclopropyl}-benzamide], the IC50 on hH3 receptors is 3 nM; in test [1] it was 13 nM.
